The text below walks through data of patent US20130217664A1, “NOVEL COMPOUNDS USEFUL FOR THE TREATMENT OF DEGENERATIVE AND INFLAMMATORY DISEASES” (priority 2012, published 2013).

Read-outs that look alike come from different tables or passages of the source.

The test system of one assay is BA/F3 cell line. As to the kind of experiment: BA/F3 viability assay. As to conditions: Mus musculus, BaF3, 48 h, read-out: BA/F3 IC50.
The next assay concerns the target T1, human TYK2 (Homo sapiens, UniProt P29597).
T1 construct: catalytic domain (amino acids 871-1187; catalog number 08-147); purchased Carna Biosciences 08-147
T1 sequence (P29597 871-1187): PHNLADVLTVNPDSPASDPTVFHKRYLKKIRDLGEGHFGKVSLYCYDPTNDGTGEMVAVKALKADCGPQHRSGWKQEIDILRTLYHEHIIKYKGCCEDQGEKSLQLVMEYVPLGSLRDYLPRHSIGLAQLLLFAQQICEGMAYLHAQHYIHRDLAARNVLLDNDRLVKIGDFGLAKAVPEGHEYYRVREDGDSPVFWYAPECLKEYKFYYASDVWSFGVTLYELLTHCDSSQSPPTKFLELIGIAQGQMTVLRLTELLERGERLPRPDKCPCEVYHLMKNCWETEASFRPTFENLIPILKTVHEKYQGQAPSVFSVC
As to the kind of experiment: TYK2 inhibition assay. It is filed as biochemical. As to conditions: recombinant human TYK2 catalytic domain, polyGT substrate. The gist of the method:
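Radiometric kinase reaction run 90 min at 30 °C, stopped with phosphoric acid, washed and scintillation-counted.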

The next assay deals with T2, human JAK1 (Homo sapiens, UniProt P23458).
T2 construct: catalytic domain, amino acids 866-1154; catalog number PV4774; purchased Invitrogen PV4774
As to the kind of experiment: JAK1 inhibition assay (polyGT substrate / Ulight-JAK1 peptide). The settings on record: recombinant human JAK1 catalytic domain; polyGT or Ulight-JAK1 peptide assay. It is filed as biochemical. A digest of the protocol: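 Signal scaled between vehicle and 10 μM staurosporine. Radiometric polyGT reactions ran 45 min at 30 °C, counted after phosphoric-acid stop. Ulight peptide reactions ran 60 min at room temperature, fluorescence read after adding Eu-PT66 detection mix with EDTA.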

For assay [1], the system named is pSTAT1(2)-luciferase reporter in HeLa cells triggered with human OSM. As to the kind of experiment: JAK-STAT signalling assay. It is filed as cell-based. The settings on record: HeLa cells, pSTAT1(2)-luciferase reporter, human OSM 33 ng/mL, read-out: JAK-STAT IC50. A digest of the protocol:
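Compound added 60 min before 33 ng/mL (final) human OSM; after overnight stimulation at 37 °C, luciferase signal from a transiently transfected pSTAT1(2) reporter in HeLa cells was read, with LacZ as internal control. EC50 derived from percent-inhibition dose-response curves.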
In general terms: In a reporter assay the amount or activity of a reporter protein is the signal.

The next assay deals with T3, human JAK3 (Homo sapiens, UniProt P52333).
T3 construct: catalytic domain (amino acids 781-1124; catalog number PV3855); purchased Invitrogen PV3855
As to the kind of experiment: JAK3 inhibition assay. The assay is classed as biochemical. As to conditions: recombinant human JAK3 catalytic domain; polyGT substrate. The gist of the method: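 Radiometric kinase assay: 0.5 ng JAK3 with 2.5 μg polyGT in Tris pH 7.5/MgCl2 buffer, 1 μM ATP plus 0.25 μCi 33P-γ-ATP, 1% DMSO, 45 min at 30 °C, stopped with phosphoric acid.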

The next assay has as its system CTLL-2 cell line. As to the kind of experiment: CTLL2 viability assay. It is filed as cell-based. The settings on record: Mus musculus, IL-2 dependent CTLL2 viability, 24 h, ATP-lite. The source says: The protocol describes the methods to analyse the activity of compounds on their ability to sustain the IL2-dependent viability of CTLL2.
Final DMSO concentration was 0.1%.

Another assay deals with T4, human JAK2 (Homo sapiens, UniProt O60674).
T4 construct: catalytic domain (amino acids 808-1132; catalog number PV4210); GST; purchased Invitrogen PV4210
As to the kind of experiment: JAK2 inhibition assay (polyGT substrate / Ulight-JAK1 peptide). The settings on record: recombinant human JAK2 catalytic domain; polyGT or Ulight-JAK1 peptide assay. It is filed as biochemical. The gist of the method: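 Two JAK2 formats: a ^33P-ATP polyGT assay (1 μM cold ATP, 90 min, 30° C., cpm read-out) and a Ulight-JAK1 peptide assay read by Europium-anti-phosphotyrosine fluorescence after 60 min at room temperature.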

T2 sequence (P23458 866-1154): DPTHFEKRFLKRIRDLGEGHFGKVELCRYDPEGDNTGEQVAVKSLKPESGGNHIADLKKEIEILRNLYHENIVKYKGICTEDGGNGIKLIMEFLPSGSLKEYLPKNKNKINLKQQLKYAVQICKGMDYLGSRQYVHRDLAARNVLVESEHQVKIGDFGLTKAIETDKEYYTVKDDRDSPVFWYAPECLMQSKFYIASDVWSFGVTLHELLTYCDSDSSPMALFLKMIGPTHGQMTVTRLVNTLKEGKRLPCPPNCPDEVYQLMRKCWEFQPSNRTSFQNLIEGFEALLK
T4 sequence (O60674 808-1132): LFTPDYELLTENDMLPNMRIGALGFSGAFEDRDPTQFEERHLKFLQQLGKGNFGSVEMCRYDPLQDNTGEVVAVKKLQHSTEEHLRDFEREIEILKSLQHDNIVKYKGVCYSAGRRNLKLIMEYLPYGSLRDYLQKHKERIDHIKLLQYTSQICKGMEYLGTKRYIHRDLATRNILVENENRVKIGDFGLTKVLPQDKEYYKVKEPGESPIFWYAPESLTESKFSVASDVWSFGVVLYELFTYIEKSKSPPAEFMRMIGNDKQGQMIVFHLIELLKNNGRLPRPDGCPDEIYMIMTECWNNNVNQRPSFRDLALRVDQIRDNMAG
T3 sequence (P52333 781-1124): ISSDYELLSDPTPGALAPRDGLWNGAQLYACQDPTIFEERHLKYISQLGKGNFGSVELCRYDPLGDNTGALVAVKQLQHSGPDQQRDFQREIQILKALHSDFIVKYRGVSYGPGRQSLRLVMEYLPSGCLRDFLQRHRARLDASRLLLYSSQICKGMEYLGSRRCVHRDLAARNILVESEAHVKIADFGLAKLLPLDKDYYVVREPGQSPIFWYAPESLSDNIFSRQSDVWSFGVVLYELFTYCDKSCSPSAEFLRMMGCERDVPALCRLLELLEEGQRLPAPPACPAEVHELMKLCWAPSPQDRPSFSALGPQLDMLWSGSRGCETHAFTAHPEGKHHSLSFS

For the compound `CCc1cc(-c2cncc(F)c2)ccc1N(C)c1cc2c(cn1)ncn2C` [Compound 133, N-(2-ethyl-4-(5-fluoropyridin-3-yl)phenyl)-N,1-dimethyl-1H-imidazo[4,5-c]pyridin-6-amine], the IC50 was more than 5000 nM in the assay on BA/F3 cell line; 101 to 500 nM at human TYK2; 0.01 to 100 nM at human JAK1; 1 to 500 nM in assay [1] (Homo sapiens, HeLa); 501 to 1000 nM on human JAK3.

Take `CCc1cc(C(N)=O)ccc1N(C)c1cc2c(cn1)ncn2C` [Compound 137, 3-Ethyl-4-(methyl(1-methyl-1H-imidazo[4,5-c]pyridin-6-yl)amino)benzamide]: the IC50 in assay [1] (Homo sapiens, HeLa) is 501 to 1000 nM; in the assay with CTLL-2 cell line, more than 1000 nM.

Consider `CCc1cc(C2=CCN(C(=O)C(C)O)CC2)ccc1N(C)c1cc2c(cn1)ncn2C` (centres unmarked) [Compound 201, 1-(4-(3-ethyl-4-(methyl(1-methyl-1H-imidazo[4,5-c]pyridin-6-yl)amino)phenyl)-5,6-dihydropyridin-1(2H)-yl)-2-hydroxypropan-1-one], for which the IC50 is 0.01 to 100 nM at human TYK2; 0.01 to 100 nM at human JAK1; 1 to 500 nM in assay [1] (Homo sapiens, HeLa); 501 to 1000 nM in the assay with CTLL-2 cell line; 101 to 500 nM on human JAK3.

As for `CCc1cc(C2CCN(C(=O)C(F)F)CC2)ccc1N(C)c1cc2c(cn1)ncn2C` [Compound 225, 1-(4-(3-ethyl-4-(methyl(1-methyl-1H-imidazo[4,5-c]pyridin-6-yl)amino)phenyl)piperidin-1-yl)-2,2-difluoroethanone], the IC50 lay in the range of 1000 to 5000 nM in the assay on BA/F3 cell line; 0.01 to 100 nM on human TYK2; 0.01 to 100 nM at human JAK1; 501 to 1000 nM in assay [1]; 0.01 to 100 nM at human JAK3.

`CCc1cc(CN(C)S(C)(=O)=O)ccc1N(C)c1cc2c(cn1)ncn2C` [Compound 261, N-(3-ethyl-4-(methyl(1-methyl-1H-imidazo[4,5-c]pyridin-6-yl)amino)benzyl)-N-methylmethanesulfonamide]: the IC50 was 1000 to 5000 nM with BA/F3 cell line; 0.01 to 100 nM at human TYK2; 0.01 to 100 nM at human JAK1; 501 to 1000 nM in the assay with CTLL-2 cell line; 0.01 to 100 nM at human JAK3.

As for `CN(c1cc2c(cn1)ncn2C)c1ccc(CNS(C)(=O)=O)cc1F` [Compound 269, N-(3-Fluoro-4-(methyl(1-methyl-1H-imidazo[4,5-c]pyridin-6-yl)amino)benzyl)methanesulfonamide], the IC50 in the assay with BA/F3 cell line was more than 5000 nM; at human TYK2, 0.01 to 100 nM; on human JAK1 it was 0.01 to 100 nM; in assay [1] (Homo sapiens, HeLa), 501 to 1000 nM; at human JAK3, 101 to 500 nM.

`CCn1nc(-c2ccc(Cl)cc2)cc1N(C)c1cc2c(cn1)ncn2C` [Compound 307, [5-(4-Chloro-phenyl)-2-ethyl-2H-pyrazol-3-yl]-methyl-(1-methyl-1H-imidazo[4,5-c]pyridin-6-yl)-amine]: the IC50 is more than 5000 nM in the assay with BA/F3 cell line; 101 to 500 nM at human JAK2; 101 to 500 nM at human TYK2; 0.01 to 100 nM at human JAK1; more than 1000 nM in the assay with CTLL-2 cell line; 101 to 500 nM on human JAK3.

`CCc1cc(C2CN(C(=O)C3CCOCC3)C2)ncc1N(C)c1cc2c(cn1)ncn2C` [Compound 337, (3-{4-Ethyl-5-[methyl-(1-methyl-1H-imidazo[4,5-c]pyridin-6-yl)-amino]-pyridin-2-yl}-azetidin-1-yl)-(tetrahydro-pyran-4-yl)-methanone]: the IC50 in the assay with BA/F3 cell line is more than 5000 nM; on human JAK2 it was more than 1000 nM; on human TYK2, more than 1000 nM; on human JAK1, 501 to 1000 nM; with CTLL-2 cell line it was more than 1000 nM; at human JAK3 it was more than 1000 nM.

Take `CCc1cc(C2CN(CCC(F)(F)F)C2)ncc1N(C)c1cc2c(cn1)ncn2C` [Compound 341, {4-Ethyl-6-[1-(3,3,3-trifluoro-propyl)-azetidin-3-yl]-pyridin-3-yl}-methyl-(1-methyl-1H-imidazo[4,5-c]pyridin-6-yl)-amine]: the IC50 with BA/F3 cell line was more than 5000 nM; at human JAK2, more than 1000 nM; on human TYK2, more than 1000 nM; at human JAK1 it was 101 to 500 nM; in the assay on CTLL-2 cell line, more than 1000 nM; at human JAK3, more than 1000 nM.

For `CCc1cc(C2CN(CC(F)(F)F)C2)ncc1N(C)c1cc2c(cn1)ncn2C` [Compound 342, {4-Ethyl-6-[1-(2,2,2-trifluoro-ethyl)-azetidin-3-yl]-pyridin-3-yl}-methyl-(1-methyl-1H-imidazo[4,5-c]pyridin-6-yl)-amine], the IC50 was more than 5000 nM in the assay with BA/F3 cell line; more than 1000 nM at human JAK2; more than 1000 nM at human TYK2; 101 to 500 nM at human JAK1; more than 1000 nM with CTLL-2 cell line; more than 1000 nM at human JAK3.

With `CCc1cc(CN(CC#N)S(C)(=O)=O)ncc1N(C)c1cc2c(cn1)ncn2C` [Compound 344, N-Cyanomethyl-N-{4-ethyl-5-[methyl-(1-methyl-1H-imidazo[4,5-c]pyridin-6-yl)-amino]-pyridin-2-ylmethyl}-methanesulfonamide], the IC50 in the assay on BA/F3 cell line was more than 5000 nM; at human JAK2, 101 to 500 nM; at human TYK2, 101 to 500 nM; on human JAK1, 0.01 to 100 nM; in the assay with CTLL-2 cell line, more than 1000 nM; at human JAK3, 0.01 to 100 nM.

For the compound `CCc1cc(C2CN(C(=O)C(F)F)C2)ccc1N(C)c1cc2c(cn1)ncn2C` [Compound 346, 1-(3-{3-Ethyl-4-[methyl-(1-methyl-1H-imidazo[4,5-c]pyridin-6-yl)-amino]-phenyl)-azetidin-1-yl)-2,2-difluoro-ethanone], the IC50 was more than 5000 nM in the assay on BA/F3 cell line; 0.01 to 100 nM on human JAK2; 0.01 to 100 nM at human TYK2; 0.01 to 100 nM on human JAK1; more than 1000 nM with CTLL-2 cell line; 101 to 500 nM on human JAK3.

As to `CCc1cc(CN2CC(F)(F)C2)ccc1N(C)c1cc2c(cn1)ncn2C` [Compound 378, [4-(3,3-Difluoro-azetidin-1-ylmethyl)-2-ethyl-phenyl]-methyl-(1-methyl-1H-imidazo[4,5-c]pyridin-6-yl)-amine], the IC50 in the assay on BA/F3 cell line is more than 5000 nM; in the assay with CTLL-2 cell line, more than 1000 nM.

For the compound `CCc1cc(C(C#N)N2CCC(C(N)=O)CC2)ccc1N(C)c1cc2c(cn1)ncn2C` (centres unmarked) [Compound 451, 1-(Cyano-{3-ethyl-4-[methyl-(1-methyl-1H-imidazo[4,5-c]pyridin-6-yl)-amino]-phenyl}-methyl)-piperidine-4-carboxylic acid amide], the IC50 on human JAK2 was 0.01 to 100 nM; at human TYK2, 0.01 to 100 nM; on human JAK1, 0.01 to 100 nM; in the assay with CTLL-2 cell line, more than 1000 nM; at human JAK3 it was 101 to 500 nM.

Regarding `CCc1cc(C(C#N)N2CCC(S(C)(=O)=O)CC2)ccc1N(C)c1cc2c(cn1)ncn2C` (centres unmarked) [Compound 452, {3-Ethyl-4-[methyl-(1-methyl-1H-imidazo[4,5-c]pyridin-6-yl)-amino]-phenyl}-(4-methanesulfonyl-piperidin-1-yl)-acetonitrile], the IC50 at human JAK2 lay within 0.01 to 100 nM; on human TYK2, 0.01 to 100 nM; at human JAK1, 0.01 to 100 nM; in the assay with CTLL-2 cell line, 501 to 1000 nM; at human JAK3, 0.01 to 100 nM.

On to `CCOC(=O)C1CN(C(C#N)c2ccc(N(C)c3cc4c(cn3)ncn4C)c(CC)c2)C1` (centres unmarked) [Compound 453, 1-(Cyano-{3-ethyl-4-[methyl-(1-methyl-1H-imidazo[4,5-c]pyridin-6-yl)-amino]-phenyl}-methyl)-azetidine-3-carboxylic acid ethyl ester], for which the IC50 is 0.01 to 100 nM at human JAK2; 0.01 to 100 nM at human TYK2; 0.01 to 100 nM on human JAK1; more than 1000 nM in the assay on CTLL-2 cell line; 501 to 1000 nM on human JAK3.
